Reference: article PMC12750218 (ACS Omega, 2025)

Experiments:
[1] = test system: human α1-acid glycoprotein (AGP); test: HPLC on chiral AGP column (immobilized protein): retention factors and estimated bound percentage; assay type: binding; details: for Bound percentage (b%): from ln k extrapolated to zero organic modifier, b%=100×k/(1+k); for retention factor (k): chiral AGP column, 2-propanol modifier
Procedure: In this study, AGP was used as the chiral selector. […]
HPLC columns with immobilized proteins can also be used to estimate the percentage of the drug bound to the protein. […] Extrapolating this relationship to a zero organic modifier approximates physiological conditions. The intercept of the regression lines was used to calculate protein binding percentages based on eq .
LC-UV analysis was conducted on an Agilent 1100 HPLC system that included a quaternary pump, an autosampler, a column compartment, and a DAD detector (Agilent Technologies, Waldbronn, Germany). Data analysis was performed with ChemStation software (version: B04.03-SP2). UV detection was set at 230 nm. Stock solutions were prepared in methanol at a concentration of 1 mg/mL (2.17 mM), and further dilutions were made by using deionized water. Samples were prepared to contain 0.1 mg/mL (0.217 mM) R-APR and 0.2 mg/mL (0.434 mM) S-APR, with each analysis performed using a 5 μL injection volume. […] Chromatographic data were evaluated according to standard calculation methods. The retention factor (k) for each enantiomer was determined using the following equation: k=(tr−t0)/t0 1 where tr denotes the retention time of the target enantiomer and t0 represents the column dead time.
Additionally, the retention factor was used to estimate the percentage of protein-bound analytes according to the following formula: b%=100×k/(1+k) 2 Three parallel measurements were performed for each case.

[2] = test system: human serum albumin (HSA); design: method as in number not printed (authors' recent work, Dombi et al., 2023); details: binding to HSA; ref number not printed (authors' recent work, Dombi et al., 2023); cited from earlier work
[3] = test system: human α1-acid glycoprotein (AGP); test: Ultracentrifugation, free APR in supernatant by HPLC-UV; details: isolated human α1-acid glycoprotein (AGP) in PBS, 5 μM APR, 5-15 μM AGP, PBS pH 7.4, 20 °C, 1:1 stoichiometry, K in L mol^–1, read-out: binding (stability) constant log K (converted)
Procedure: The interaction of S-APR and R-APR with AGP was also examined with ultracentrifugation, where increasing protein levels (final concentrations: 0, 5, 10, and 15 μM) were added to a standard amount of the ligand (5 μM) in PBS (pH 7.4). These samples (600 μL) were centrifuged for 16 h at 170,000g and 20 °C employing an Optima MAX-XP ultracentrifuge (Beckman Coulter, Brea, CA, USA). Using these experimental conditions, the protein is slowly sedimented without the disruption of ligand–protein interactions. − , Thereafter, the unbound free fraction of APR was directly quantified in the protein-free supernatants by the HPLC-UV method (see the next paragraph). Binding (association) constants (K; unit: L mol^–1) of APR–AGP complexes were calculated assuming a 1:1 stoichiometry of complex formation: , K=([APR−AGP])/([APR]×[AGP]) 3 where [APR] is the molar concentration of the unbound free ligand, [AGP] is the molar concentration of the unbound free protein, and [APR–AGP] indicates the molar concentration of the ligand–protein complex.
The APR concentration after centrifugation was measured by a validated HPLC-UV method using an XTERRA RP18 column (5 μm, 4.6 × 100 mm), maintained at 40 °C. Isocratic elution was applied using acetonitrile and water containing 0.5% formic acid (60:40, v/v) as the mobile phase. […] The concentration was determined by using the external standard method. […]

[4] = test system: human α1-acid glycoprotein (AGP); test: Isothermal titration calorimetry of AGP with APR enantiomers; assay type: binding; details: ITC, aqueous 5% DMSO, 25 °C; for Standard entropy (ΔS) of binding: calculated from ΔG=ΔH−TΔS; for Standard Gibbs free energy (ΔG) of binding: calculated from −RTlnK
mouse plasma proteins = test system: mouse plasma proteins; design: method as in public assessment report of Otezla (CHMP, 2014); details: 0.25 to 2.5 μg/mL, ref public assessment report of Otezla (CHMP, 2014); cited from earlier work
human plasma proteins = test system: human plasma proteins; design: method as in public assessment report of Otezla (CHMP, 2014); details: 0.25 to 2.5 μg/mL, ref public assessment report of Otezla (CHMP, 2014); cited from earlier work
rabbit plasma proteins = test system: rabbit plasma proteins; design: method as in public assessment report of Otezla (CHMP, 2014); details: 0.25 to 2.5 μg/mL, ref public assessment report of Otezla (CHMP, 2014); cited from earlier work
rat plasma proteins = test system: rat plasma proteins; design: method as in public assessment report of Otezla (CHMP, 2014); details: 0.25 to 2.5 μg/mL, ref public assessment report of Otezla (CHMP, 2014); cited from earlier work
monkey plasma proteins = test system: monkey plasma proteins; design: method as in public assessment report of Otezla (CHMP, 2014); details: 0.25 to 2.5 μg/mL, ref public assessment report of Otezla (CHMP, 2014); cited from earlier work
[5] = 25 °C, sodium phosphate buffer 10 mM pH 7.0, 95% in eluent
[6] = ammonium acetate buffer 10 mM pH 7.0, 85% in eluent
[7] = ammonium acetate buffer 10 mM pH 7.0, 90% in eluent
[8] = ammonium acetate buffer 10 mM pH 7.0, 92.5% in eluent
[9] = ammonium acetate buffer 10 mM pH 7.0, 95% in eluent
[10] = ammonium bicarbonate buffer 10 mM pH 7.0, 85% in eluent
[11] = ammonium bicarbonate buffer 10 mM pH 7.0, 90% in eluent
[12] = ammonium bicarbonate buffer 10 mM pH 7.0, 92.5% in eluent
[13] = ammonium bicarbonate buffer 10 mM pH 7.0, 95% in eluent
[14] = sodium phosphate buffer 10 mM pH 7.0, 85% in eluent
[15] = sodium phosphate buffer 10 mM pH 7.0, 90% in eluent
[16] = sodium phosphate buffer 10 mM pH 7.0, 92.5% in eluent

In the case of `CCOc1cc([C@H](CS(C)(=O)=O)N2C(=O)c3cccc(NC(C)=O)c3C2=O)ccc1OC` [R-APR, apremilast], the “Bound percentage (b%)” value ([1]; ammonium acetate buffer) is reported as 98.37%, the “Bound percentage (b%)” value ([1]; ammonium bicarbonate buffer) is reported as 99.19% and the “retention factor (k)” value [1, 5] is reported as 3.99 ± 0.02. The “retention factor (k)” value [1, 6] was 0.33 ± 0.01, the “retention factor (k)” value [1, 7] was 0.90 ± 0.01 and the “retention factor (k)” value [1, 8] was 1.51 ± 0.03. For the same compound, the “retention factor (k)” value [1, 9] was 3.29 ± 0.02, the “retention factor (k)” value [1, 10] was 0.32 ± 0.01 and the “retention factor (k)” value [1, 11] was 0.94 ± 0.01. The “retention factor (k)” value [1, 12] was 1.62 ± 0.01, the “retention factor (k)” value [1, 13] was 3.59 ± 0.02 and the “retention factor (k)” value [1, 14] was 0.34 ± 0.01. For the same compound, the “retention factor (k)” value [1, 15] was 0.98 ± 0.01, the “retention factor (k)” value [1, 16] was 1.69 ± 0.01 and the “Bound percentage (b%)” value ([1]; sodium phosphate buffer) was 99.31%. For the same compound, the “Stability constant (log K), HSA” value [2] was 3.81 ± 0.05, the Kd at 16 h, 5 µM [3] was 2.29 µM and the “Standard enthalpy (ΔH) of binding” value [4] was “–3.40 ± 0.26 kcal mol^–1”. The “Standard entropy (ΔS) of binding” value [4] was 13.7 ± 1.5 cal K^–1 mol^–1 and the “Standard Gibbs free energy (ΔG) of binding” value [4] was “–7.48 ± 0.18 kcal mol^–1”.

For `CCOc1cc([C@@H](CS(C)(=O)=O)N2C(=O)c3cccc(NC(C)=O)c3C2=O)ccc1OC` [APR, Apremilast], the “average percentage bound to plasma proteins” value (from here on “average percentage bound”) (mouse plasma proteins) is given as 88.6%, the “average percentage bound” value (human plasma proteins) is given as 68.3% and the “average percentage bound” value (rabbit plasma proteins) is given as 80.9%. For the same compound, the “average percentage bound” value (rat plasma proteins) was 90.6% and the “average percentage bound” value (monkey plasma proteins) was 84.3%.

With `CCOc1cc([C@@H](CS(C)(=O)=O)N2C(=O)c3cccc(NC(C)=O)c3C2=O)ccc1OC` [S-APR, apremilast] the “Bound percentage (b%)” value ([1]; ammonium acetate buffer) was 99.01%, the “Bound percentage (b%)” value ([1]; ammonium bicarbonate buffer) was 99.54% and the “retention factor (k)” value [1, 5] was 5.05 ± 0.03. The “retention factor (k)” value [1, 6] was 0.33 ± 0.01, the “retention factor (k)” value [1, 7] was 0.90 ± 0.01 and the “retention factor (k)” value [1, 8] was 1.72 ± 0.03. For the same compound, the “retention factor (k)” value [1, 9] was 4.07 ± 0.02, the “retention factor (k)” value [1, 10] was 0.32 ± 0.01 and the “retention factor (k)” value [1, 11] was 0.94 ± 0.01. The “retention factor (k)” value [1, 12] was 1.89 ± 0.01, the “retention factor (k)” value [1, 13] was 4.44 ± 0.02 and the “retention factor (k)” value [1, 14] was 0.34 ± 0.01. For the same compound, the “retention factor (k)” value [1, 15] was 0.98 ± 0.01, the “retention factor (k)” value [1, 16] was 2.00 ± 0.01 and the “Bound percentage (b%)” value ([1]; sodium phosphate buffer) was 99.63%. For the same compound, the “Stability constant (log K), HSA” value [2] was 4.02 ± 0.08, the Kd at 16 h, 5 µM [3] was 1.7 µM and the “Standard enthalpy (ΔH) of binding” value [4] was “–4.80 ± 0.27 kcal mol^–1”. For the same compound, the “Standard entropy (ΔS) of binding” value [4] was 9.3 ± 1.3 cal K^–1 mol^–1 and the “Standard Gibbs free energy (ΔG) of binding” value [4] was “–7.57 ± 0.12 kcal mol^–1”.
